{"source": "patent US20200360331A1", "about": "“COMPOSITIONS COMPRISING 15-HEPE AND/OR 15-HETrE AND METHODS OF TREATING OR PREVENTING CARDIOMETABOLIC DISEASE, METABOLIC SYNDROME, AND/OR RELATED DISEASES” (Afimmune Limited, priority 2019, published 2020)", "key": {"[1]": {"test_system": "TGF-β-stimulated intracellular signaling (SMAD2/3 phosphorylation)", "assay": "TGF-β-stimulated SMAD2/3 phosphorylation in LX2 liver stellate cells", "assay_type": "cell-based, human", "details": "0 μM to 100 μM for 24 hours, then 30 min TGF-β stimulation, listed as 15-HEPE"}, "NAFLD patients [2]": {"test_system": "NAFLD patients", "assay": "Phase IIa NAFLD study: OWL Liver Care diagnostic test for NASH", "assay_type": "in vivo, human", "description": "(§1) The study was planned to include 96 evaluable patients with 32 patients randomized per treatment group.\nOWL Liver Care is a test that was developed based on the plasma lipidomics in biopsy-confirmed NASH patients and provides high predictive values. OWL Liver Care has an area under the curve (AUC) of 0.88 for distinguishing NAFLD and normal liver patients and an AUC of 0.79 for distinguishing NAFLD without steatohepatitis and NASH patients."}, "NAFLD patients [3]": {"test_system": "NAFLD patients", "assay": "Phase IIa NAFLD study: hepatic fat by CAP", "assay_type": "in vivo, human", "details": "patients diagnosed with NAFLD", "method": "The study was planned to include 96 evaluable patients with 32 patients randomized per treatment group. […] Liver stiffness and CAP: Liver stiffness and CAP were assessed using transient elastography (e.g., FibroScan® 502 Touch model or equivalent). Patients were fasted and scanned at the same time of the day, if possible, for baseline (Week 0) and Visit 10 (Week 16). For this assessment the following conditions were met: patients were lying in dorsal decubitus position with the right arm in maximal abduction behind the head, in a similar position to that used for liver biopsy (LB); the tip of the transducer was placed on the skin between the ribs over the right lobe of the liver (the physician took the measurements with the probe placed in the intercostal space); during the FibroScan® examination the choice of M+ or XL+ probe was determined by the Automatic Probe Selection tool (APS) (If, the APS tool advises to use the “XL+ probe” or “switch” continuously between “M+ and XL+ probe”, only the XL+ probe was used); and the operator, assisted by an ultrasonic time motion image, located a portion of the liver which is free of large vascular structures (the depth of measurement was between 35-75 mm for the XL+ probe and 25-65 mm for the M+ probe and the explored volume will be 3 cm^3). […] The final stiffness and CAP values was recorded as median values of valid measurements."}, "NAFLD patients [4]": {"test_system": "NAFLD patients", "assay": "Phase IIa NAFLD study: proteomics of blood samples", "assay_type": "in vivo, human", "description": "The study was planned to include 96 evaluable patients with 32 patients randomized per treatment group. […] Exploratory analysis: The exploratory analysis included analysis of lipid and metabolic parameters including total cholesterol, triglycerides, very low-density lipoprotein cholesterol (VLDL-C), low density lipoprotein cholesterol (LDL-C), high density lipoprotein cholesterol (HDL-C), non-high-density lipoprotein cholesterol (non-HDL-C), remnant-like particle cholesterol (RLP-C), fasting glucose, insulin, free fatty acids and hemoglobin A1C (HbA1C). Additional exploratory analysis included high throughput lipidomics and proteomics."}, "NAFLD patients [5]": {"test_system": "NAFLD patients", "assay": "Phase IIa NAFLD study: safety (adverse events)", "assay_type": "in vivo, human", "description": "as §1\nThe intensity of an AE is an estimate of the relative severity of the event made by the Investigator based on his or her clinical experience. The following definitions were used to rate the severity of an AE: • Mild: The adverse event was transient and easily tolerated. • Moderate: The adverse event caused the patient discomfort and interrupted the patient's usual activities. • Severe: The adverse event caused considerable interference with the patient's usual activities and may have been incapacitating or life-threatening.\nCausality of the AE to experimental treatment was also established by taking into account the patient's history, most recent physical examination findings, and concomitant medications. The following definitions were used to determine causality of an AE: • Not related: temporal relationship of the onset of the AE, relative to the experimental treatment was not reasonable or another cause could explain the occurrence of the AE. • Related: temporal relationship of the onset of the AE, relative to the experimental treatment was reasonable, followed a known response pattern to the treatment, and an alternative cause was unlikely."}, "[6]": {"details": "1 g per day, baseline diagnosis NASH"}, "[7]": {"details": "1 g per day, baseline diagnosis No NAFLD"}, "[8]": {"details": "1 g per day, baseline diagnosis Steatosis"}, "[9]": {"details": "2 g per day, baseline diagnosis NASH"}, "[10]": {"details": "2 g per day, baseline diagnosis No NAFLD"}, "[11]": {"details": "2 g per day, baseline diagnosis Steatosis"}}, "note": "“Also recorded” adds a separate entry of the source."}
{"molecule": "CC/C=C\\CC(O)/C=C/C=C\\C/C=C\\C/C=C\\CCCC(=O)O", "note": "(stereo not drawn) [DS102, 15-hydroxy-eicosa-5Z,8Z,11Z,13E,17Z-pentaenoic acid]", "values": [{"measurement": "TGF-β-stimulated intracellular signaling (SMAD2/3 phosphorylation)", "setting": "[1]", "result": "inhibits TGF-β-stimulated intracellular signaling; also recorded: inhibited TGF-β induced intracellular signaling (SMAD2/3)"}, {"measurement": "OWL test change in diagnosis (Week 16 vs. baseline): Improvement, patients", "setting": "NAFLD patients [2]; [6]", "result": 5}, {"measurement": "OWL test change in diagnosis (Week 16 vs. baseline): Stable, patients", "setting": "NAFLD patients [2]; [6]", "result": 14}, {"measurement": "OWL test change in diagnosis (Week 16 vs. baseline): Stable, patients", "setting": "NAFLD patients [2]; [7]", "result": 3}, {"measurement": "OWL test change in diagnosis (Week 16 vs. baseline): Worsening, patients", "setting": "NAFLD patients [2]; [7]", "result": 1}, {"measurement": "OWL test change in diagnosis (Week 16 vs. baseline): Stable, patients", "setting": "NAFLD patients [2]; [8]", "result": 2}, {"measurement": "OWL test change in diagnosis (Week 16 vs. baseline): Worsening, patients", "setting": "NAFLD patients [2]; [8]", "result": 3}, {"measurement": "OWL test change in diagnosis (Week 16 vs. baseline): Improvement, patients", "setting": "NAFLD patients [2]; [9]", "result": 5}, {"measurement": "OWL test change in diagnosis (Week 16 vs. baseline): Stable, patients", "setting": "NAFLD patients [2]; [9]", "result": 7}, {"measurement": "OWL test change in diagnosis (Week 16 vs. baseline): Stable, patients", "setting": "NAFLD patients [2]; [10]", "result": "2*, **"}, {"measurement": "OWL test change in diagnosis (Week 16 vs. baseline): Worsening, patients", "setting": "NAFLD patients [2]; [10]", "result": 1}, {"measurement": "OWL test change in diagnosis (Week 16 vs. baseline): Improvement, patients", "setting": "NAFLD patients [2]; [11]", "result": 1}, {"measurement": "OWL test change in diagnosis (Week 16 vs. baseline): Stable, patients", "setting": "NAFLD patients [2]; [11]", "result": 9}, {"measurement": "OWL test change in diagnosis (Week 16 vs. baseline): Worsening, patients", "setting": "NAFLD patients [2]; [11]", "result": 4}, {"measurement": "OWL liver care diagnosed NASH", "setting": "NAFLD patients [2]; Week 16, dose dependent, compared to placebo", "result": "significantly improved and normalized"}, {"measurement": "hepatic fat content as assessed by CAP", "setting": "NAFLD patients [3]", "result": "reduced"}, {"measurement": "TR protein", "setting": "NAFLD patients [4]; 1 g", "result": "significant reductions"}, {"measurement": "NASH drug development targets CCR2/5 signaling, Galectin3, AOC3", "setting": "NAFLD patients [4]; 2 g", "result": "decreased"}, {"measurement": "number of markers (inflammation, fibrosis, lipid metabolism, apoptosis, chemotaxis) significantly downregulated", "setting": "NAFLD patients [4]; 2 g, panel of greater than 350 protein biomarkers", "result": "over 150"}, {"measurement": "inflammatory and pro-fibrotic proteins (protein expression)", "setting": "NAFLD patients [4]; 2 g, Bonferroni: PAI-1, TIMP-1, DPP4, TLT2, CCL16, MCP-1, SAA4, PI3/Elafin, TR, LILRB1, TNRSF11A, linear model: TLT2, AOC3, PRSS2", "result": "decreased"}, {"measurement": "expression of multiple circulating chemokines", "setting": "NAFLD patients [4]; NAFLD patients", "result": "decreased"}, {"measurement": "expression of multiple proteins associated with increased cardiovascular risk", "setting": "NAFLD patients [4]; NAFLD patients", "result": "decreased"}, {"measurement": "expression of multiple tumor necrosis factor receptor superfamily members", "setting": "NAFLD patients [4]; NAFLD patients", "result": "decreased"}, {"measurement": "expression of multiple vascular adhesion molecules", "setting": "NAFLD patients [4]; NAFLD patients", "result": "decreased"}, {"measurement": "Death, patients n", "setting": "NAFLD patients [5]; 1 g DS102 (n = 32)", "result": 0}, {"measurement": "Patients with ≥1 AE related to study drug, %", "setting": "NAFLD patients [5]; 1 g DS102 (n = 32)", "result": "(6.3) %"}, {"measurement": "Patients with ≥1 AE, %", "setting": "NAFLD patients [5]; 1 g DS102 (n = 32)", "result": "(59.4) %"}, {"measurement": "Death, patients n", "setting": "NAFLD patients [5]; 2 g DS102 (n = 30)", "result": 0}, {"measurement": "Patients with ≥1 AE related to study drug, %", "setting": "NAFLD patients [5]; 2 g DS102 (n = 30)", "result": "(10.0) %"}, {"measurement": "Patients with ≥1 AE, %", "setting": "NAFLD patients [5]; 2 g DS102 (n = 30)", "result": "(50.0) %"}, {"measurement": "Patients with ≥1 SAE, %", "setting": "NAFLD patients [5]; 2 g DS102 (n = 30)", "result": "(3.3) %"}, {"measurement": "drug related serious adverse events (SAEs)", "setting": "NAFLD patients [5]; NAFLD patients, 16 weeks", "result": "no drug related serious adverse events"}, {"measurement": "safety and tolerability compared to placebo", "setting": "NAFLD patients [5]; NAFLD patients, 16 weeks", "result": "safe and well tolerated"}]}
